Converted amounts (≈) assume the structure as drawn. Peptide text beside a SMILES is read from it. * marks the point of attachment. Orn(α-tetramethylguanidino) = CN(C)C(=N[C@@H](CCCN)C(=O)*)N(C)C
What was measured:
[1] = system: E. coli BL21 (DE3) sbmA::Tn10^Cm; assay type: cell-based, Escherichia coli
Experimental: (§1) The minimal inhibitory concentrations (MIC) were determined at least twice in triplicate using a liquid broth microdilution assay in sterile 96-well plates and a total volume of 100 μL per well. Aqueous peptide solutions were serially 2-fold diluted in 25% MHBII or 33% TSB medium in a volume of 50 µL. An overnight culture was diluted in 25% MHBII or 33% TSB medium to 1.5 × 10^7 CFU/mL, and an aliquot of 50 μL was added to each well. The final cell count in each well was 7.5 × 10^6 CFU/mL. The plates were incubated at 37 °C for 20 ± 2 h. The turbidity of each well was measured at a wavelength of 600 nm. The MIC was defined as the lowest peptide concentration where the turbidity was identical to medium only.
E. coli strain BL21(DE3) was randomly mutagenized by Tn10 insertion using the lambda phage lysate λNK1324 carrying a chloramphenicol resistance and grown on LB agar plates in the presence of chloramphenicol (15 µg/mL) at 30 °C overnight. The resistant colonies were transferred to 25% MHBII agar plates containing Api137 (32 or 64 µg/mL) and incubated again at 37 °C overnight. Genomic DNA was isolated by a Monarch® Genomic DNA purification kit (New England Biolabs, Frankfurt am Main, Germany) from the presumed double-resistant strains, and the sequences flanking the transposon insertion were determined by arbitrary primed PCR using arbitrary primer ARB6 and Tn10 transposon-specific primer IS10-R complementary to the IS10 element of Tn10 transposon. The first round of amplification included six cycles of denaturation (95 °C, 30 s), annealing (30 °C, 30 s), and extension (72 °C, 90 s), followed by 30 cycles of denaturation (95 °C, 30 s), annealing (45°C, 30 s), and extension (72 °C, 2 min), as well as a final extension (72 °C, 6 min). The second round of amplification used arbitrary primer ARB2 and primer IS10-R. The PCR consisted of 30 cycles of denaturation (95 °C, 30 s), annealing (52 °C, 30 s), and extension (72 °C, 2 min), followed by a final extension step (72 °C, 6 min). PCR products were purified with the NucleoSpin® Gel and a PCR cleanup kit (Macherey-Nagel, Düren, Germany) and sequenced using primer IS10-R (Eurofins MWG Operon, Ebersberg, Germany), and the corresponding protein was identified in a sequence database (UniProt and NCBI, 2021).

[2] = system: E. coli Rosetta DE3 pLysS; assay: MIC, liquid broth microdilution; assay type: cell-based, Escherichia coli; conditions: 25% MHBII medium, 7.5 × 10^6 CFU/mL, 37 °C, 20 ± 2 h, turbidity 600 nm, at least twice in triplicate
Experimental: as §1

[3] = system: E. coli BW25113 ΔsbmA +psbmA; assay type: cell-based, Escherichia coli
Experimental: as §1

E. coli BW25113 ΔsbmA = assay type: cell-based, Escherichia coli
Experimental: as §1

[4] = system: in vitro protein translation (GFP expression); assay: In vitro translation assay (GFP fluorescence, PureExpress Delta RF123 kit); assay type: biochemical, Escherichia coli
Experimental: Next, we investigated whether Api805 inhibits protein translation in vitro by recording the fluorescence of expressed GFP (Figure 2). As Api137 inhibits protein translation by trapping release factors RF1 and RF2, the fluorescence was measured in the absence of release factor and in the presence of RF1 or RF2. We used a ribosome concentration of 2.4 µmol/L, which is ~[…] than the ribosome concentration in E. coli. […] Furthermore, RF2 of PureExpress® was isolated from an E. coli K-12 strain that carries an A246T substitution, reducing its susceptibility to apidaecin [15, 23]. The inhibition was measured for peptide concentrations of 0.05, 5, and 50 µmol/L relative to the fluorescence obtained without a PrAMP (100%).
GFP was expressed using an NEB PureExpress Delta RF123 kit (New England Biolabs, Ipswich, MA, USA). The sfGFP DNA template coding for a UAA stop codon was amplified from the pY71sfGFP plasmid by PCR using sfGFP primers (Table S3). Release factor 1 (RF1) included in the kit was 50-fold diluted (v/v) in freshly prepared 1x pure system buffer (PSB, 1 mol/L magnesium acetate, 0.5 mol/L K3PO4 (pH 7.3), 1 mol/L potassium glutamate, 1 mol/L NH4Cl, 0.5 mol/L CaCl2, 1 mol/L spermidine, 0.1 mol/L putrescine, 0.1 mol/L DTT). GFP was expressed in a freshly prepared mixture of kit solution A (2 µL), kit solution B (1.5 µL), 50-fold diluted RF1 (0.5 µL), sfGFP template (0.1325 pmol, 35 ng) or water as control (0.25 µL), PSB (0.25 µL), and PrAMP (50, 5, 0.05 or 0 µmol/L) dissolved in water (0.5 µL). The reaction mixture was transferred into a black 384-well plate (flat bottom, Greiner Bio-One GmbH), covered with a lid, and incubated in a microplate reader (Gemini EM, Molecular Devices) at 37 °C for two hours. The fluorescence was recorded every 10 min (λexc = 485 nm, λem = 535 nm).

[5] = system: E. coli BL21 (DE3) RIL ribosome extract; conditions: values published for E. coli BL21 (DE3) RIL ribosome extract; read-out: Ki, cf-Api137; cited from earlier work
[6] = system: E. coli BL21 (DE3) RIL ribosome extract; conditions: values published for E. coli BL21 (DE3) RIL ribosome extract; read-out: Kd (printed in column Ros); cited from earlier work
Source text: Table 2 Antibacterial activities, dissociation (Kd), and inhibition constants (Ki) of ribosome binding obtained for all PrAMPs included in the current study for E. coli strains BW25113 (BW) and Rosetta DE3 pLysS (Ros). | column: Kd [µmol/L] ** / Ros

[7] = 25% MHBII containing IPTG (0.1 mmol/L)
[8] = 33% TSB containing IPTG (0.1 mmol/L)
[9] = highest peptide concentration (50 µmol/L), relative to fluorescence without PrAMP, 37 °C, 2 h, twice in duplicate

| SMILES | MIC, 25% MHBII ([1]; BL21 (DE3) sbmA::Tn10^Cm, 25% MHBII containing IPTG (0.1 mmol/L)) [µg/mL] | MIC, 33% TSB ([1]; BL21 (DE3) sbmA::Tn10^Cm, 33% TSB containing IPTG (0.1 mmol/L)) [µg/mL] | MIC, Ros [2] [µg/mL] | MIC, 25% MHBII [3, 7] [µg/mL] | MIC, 33% TSB [3, 8] [µg/mL] | MIC, 25% MHBII (E. coli BW25113 ΔsbmA; [7]) [µg/mL] | MIC, 33% TSB (E. coli BW25113 ΔsbmA; [8]) [µg/mL] | inhibition of protein translation in the absence of RF1, in words ([4]; GFP fluorescence, Figure 2) | inhibition of protein translation in the presence of RF1 [4, 9] | MIC in the E. coli BL21 sbmA::Tn10^Cm strain ([1]; medium not stated (Table 3: 25% MHBII and 33% TSB)) [µg/mL] | inhibition of protein translation in the absence of RF1 [4, 9] | Ki [5] [µM] | Kd [6] [µM] |
| --- | --- | --- | --- | --- | --- | --- | --- | --- | --- | --- | --- | --- | --- |
| CC[C@H](C)[C@H](NC(=O)[C@H](Cc1ccc(O)cc1)NC(=O)[C@@H](NC(=O)[C@@H]1CCCN1C(=O)[C@H](CCCNC(=N)N)NC(=O)[C@H](CC(N)=O)NC(=O)[C@H](CC(N)=O)NC(=O)[C@H](CCCN)N=C(N(C)C)N(C)C)C(C)C)C(=O)N1CCC[C@H]1C(=O)N[C@@H](CCCNC(=N)N)C(=O)N1CCC[C@H]1C(=O)N[C@@H](CCCNC(=N)N)C(=O)N1CCC[C@H]1C(=O)N1CCC[C@H]1C(=O)N[C@@H](Cc1c[nH]cn1)C(=O)N1CCC[C@H]1C(=O)N[C@@H](CCCNC(=N)N)C(=O)N[C@@H](CC(C)C)C(=O)O [Api137] ({Orn(α-tetramethylguanidino)}-NNRPVYIPRPRPPHPRL-OH) | 16 (≈ 6.98 µM) | 16 (≈ 6.98 µM) | 2 (≈ 0.873 µM) | 4 (≈ 1.75 µM) | 8 (≈ 3.49 µM) | 8 (≈ 3.49 µM) | 64 (≈ 27.9 µM) | only a slight inhibition | ~ 77% |  |  |  |  |
| CC[C@H](C)[C@H](NC(=O)[C@@H]1CCCN1C(=O)[C@H](CCCNC(=N)N)NC(=O)[C@H](CC(N)=O)NC(=O)[C@H](CC(N)=O)NC(=O)CN)C(=O)N[C@@H](Cc1ccc(O)cc1)C(=O)N[C@H](C(=O)N1CCC[C@H]1C(=O)N[C@@H](CCCNC(=N)N)C(=O)N1CCC[C@H]1C(=O)N[C@@H](CCCNC(=N)N)C(=O)N1CCC[C@H]1C(=O)N1CCC[C@H]1C(=O)N[C@@H](Cc1c[nH]cn1)C(=O)N1CCC[C@H]1C(=O)N[C@@H](CCCNC(=N)N)C(=O)N1CCC[C@H]1C(=O)N[C@H](C(=O)N[C@@H](CCCNC(=N)N)C(=O)N[C@H](C(=O)O)C(C)C)[C@@H](C)CC)[C@@H](C)CC [Api805] (H-GNNRPIYIPRPRPPHPRPIRV-OH; N-terminus assumed) |  |  |  |  |  |  |  |  | ~ 52% | 128 | ~ 38% |  |  |
| CC[C@H](C)[C@H](NC(=O)[C@H](Cc1ccc(O)cc1)NC(=O)[C@@H](NC(=O)[C@@H]1CCCN1C(=O)[C@H](CCCNC(=N)N)NC(=O)[C@H](CC(N)=O)NC(=O)[C@H](CC(N)=O)NC(=O)[C@H](CCCN)N=C(N(C)C)N(C)C)C(C)C)C(=O)N1CCC[C@H]1C(=O)N[C@@H](CCCNC(=N)N)C(=O)N1CCC[C@H]1C(=O)N[C@@H](CCCNC(=N)N)C(=O)N1CCC[C@H]1C(=O)N1CCC[C@H]1C(=O)N[C@@H](Cc1c[nH]cn1)C(=O)N1CCC[C@H]1C(=O)N[C@@H](CCCNC(=N)N)C(=O)N[C@@H](CC(C)C)C(N)=O [Api88] ({Orn(α-tetramethylguanidino)}-NNRPVYIPRPRPPHPRL-NH2) |  |  | 1 (≈ 0.437 µM) |  |  |  |  |  |  |  |  | 0.18 | 1.22 |
